Source: US20150105252A1, “SUBSTITUTED PYRAZOLES AS HERBICIDES” (E I DU PONT DE NEMOURS AND COMPANY, priority 2013, published 2015)

Tests used:
[1] = tested on: morningglory; assay: Test A postemergence; type: in vivo, Ipomoea spp.; details: Postemergence, 1000 g ai/ha; visual rating after approx. 10 days, 0 to 100 scale (0 no effect, 100 complete control)
From the text: (§1) Seeds of plant species selected from barnyardgrass (Echinochloa crus-galli), kochia (Kochia scoparia), common ragweed (Ambrosia elation), Italian ryegrass (Lolium multiflorum), crabgrass, large (large crabgrass, Digitaria sanguinalis), foxtail, giant (giant foxtail, Setaria faberii), morningglory (Ipomoea spp.), pigweed (redroot pigweed, Amaranthus retroflexus), velvetleaf (Abutilon theophrasti), wheat (Triticum aestivum), and corn (Zea mays) were planted into a blend of loam soil and sand and treated preemergence with a directed soil spray using test chemicals formulated in a non-phytotoxic solvent mixture which included a surfactant.
(§2) At the same time, plants selected from these crop and weed species and also blackgrass (Alopecurus myosuroides), and galium (catchweed bedstraw, Galium aparine) were planted in pots containing the same blend of loam soil and sand and treated with postemergence applications of test chemicals formulated in the same manner. Plants ranged in height from 2 to 10 cm and were in the one- to two-leaf stage for the postemergence treatment. Treated plants and untreated controls were maintained in a greenhouse for approximately 10 days, after which time all treated plants were compared to untreated controls and visually evaluated for injury. Plant response ratings, summarized in Table A, are based on a 0 to 100 scale where 0 is no effect and 100 is complete control. A dash (-) response means no test result.

[2] = tested on: morningglory; assay: Test A preemergence; type: in vivo, Ipomoea spp.; details: Preemergence, 1000 g ai/ha; 0 to 100 scale, 0 no effect, 100 complete control
From the text: as §1, §2

[3] = tested on: wheat; assay: Test A postemergence; type: in vivo, Triticum aestivum; details: Postemergence, 1000 g ai/ha; visual rating after approx. 10 days, 0 to 100 scale (0 no effect, 100 complete control)
Method in brief: (§3)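 Scoring was visual, on a scale where 100 means complete control and 0 means no effect, comparing treated with untreated plants around 10 days post-application. Compounds in surfactant-containing non-phytotoxic solvent were sprayed onto soil preemergence or onto one- to two-leaf seedlings (2–10 cm) postemergence.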

[4] = tested on: velvetleaf; assay: Test A preemergence; type: in vivo, Abutilon theophrasti; details: Preemergence, 1000 g ai/ha; 0 to 100 scale, 0 no effect, 100 complete control
From the text: as §1, §2

[5] = tested on: wheat; assay: Test A preemergence; type: in vivo, Triticum aestivum; details: Preemergence, 1000 g ai/ha; 0 to 100 scale, 0 no effect, 100 complete control
Method in brief: as §3

[6] = tested on: barnyardgrass; assay: Test A postemergence; type: in vivo, Echinochloa crus-galli; details: Postemergence, 1000 g ai/ha; visual rating after approx. 10 days, 0 to 100 scale (0 no effect, 100 complete control)
From the text: as §1, §2

[7] = tested on: pigweed; assay: Test A postemergence; type: in vivo, Amaranthus retroflexus; details: Postemergence, 1000 g ai/ha; visual rating after approx. 10 days, 0 to 100 scale (0 no effect, 100 complete control)
From the text: as §1, §2

[8] = tested on: pigweed; assay: Test A preemergence; type: in vivo, Amaranthus retroflexus; details: Preemergence, 1000 g ai/ha; 0 to 100 scale, 0 no effect, 100 complete control
From the text: as §1, §2

[9] = tested on: foxtail, giant; assay: Test A preemergence; type: in vivo, Setaria faberii; details: Preemergence, 1000 g ai/ha; 0 to 100 scale, 0 no effect, 100 complete control
Method in brief: as §3

[10] = tested on: corn; assay: Test A postemergence; type: in vivo, Zea mays; details: Postemergence, 1000 g ai/ha; visual rating after approx. 10 days, 0 to 100 scale (0 no effect, 100 complete control)
From the text: as §1, §2

[11] = tested on: barnyardgrass; assay: Test A preemergence; type: in vivo, Echinochloa crus-galli; details: Preemergence, 1000 g ai/ha; 0 to 100 scale, 0 no effect, 100 complete control
Method in brief: as §3

[12] = tested on: velvetleaf; assay: Test A postemergence; type: in vivo, Abutilon theophrasti; details: Postemergence, 1000 g ai/ha; visual rating after approx. 10 days, 0 to 100 scale (0 no effect, 100 complete control)
From the text: as §1, §2

[13] = tested on: crabgrass, large; assay: Test A preemergence; type: in vivo, Digitaria sanguinalis; details: Preemergence, 1000 g ai/ha; 0 to 100 scale, 0 no effect, 100 complete control
Method in brief: as §3

[14] = tested on: foxtail, giant; assay: Test A postemergence; type: in vivo, Setaria faberii; details: Postemergence, 1000 g ai/ha; visual rating after approx. 10 days, 0 to 100 scale (0 no effect, 100 complete control)
Method in brief: as §3

[15] = tested on: corn; assay: Test A preemergence; type: in vivo, Zea mays; details: Preemergence, 1000 g ai/ha; 0 to 100 scale, 0 no effect, 100 complete control
From the text: as §1, §2

[16] = tested on: crabgrass, large; assay: Test A postemergence; type: in vivo, Digitaria sanguinalis; details: Postemergence, 1000 g ai/ha; visual rating after approx. 10 days, 0 to 100 scale (0 no effect, 100 complete control)
Method in brief: as §3

CCc1cc(C(=O)NCC(F)(F)F)nn1Cc1cccc(C(F)(F)F)c1 [Compound 18]
Morningglory plant response rating [1]: 100
Morningglory plant response rating [2]: 70
Wheat plant response rating [3]: 40
Velvetleaf plant response rating [4]: 100
Wheat plant response rating [5]: 40
Barnyardgrass plant response rating [6]: 50
Pigweed plant response rating [7]: 90
Pigweed plant response rating [8]: 90
Foxtail, Giant plant response rating [9]: 100
Corn plant response rating [10]: 70
Barnyardgrass plant response rating [11]: 80
Velvetleaf plant response rating [12]: 100
Crabgrass, Large plant response rating [13]: 100
Foxtail, Giant plant response rating [14]: 90
Corn plant response rating [15]: 30
Crabgrass, Large plant response rating [16]: 90

CCNC(=O)c1cc(CC)n(Cc2cccc(OC(F)(F)F)c2)n1 [Compound 19]
Morningglory plant response rating [1]: 90
Morningglory plant response rating [2]: 90
Wheat plant response rating [3]: 20
Velvetleaf plant response rating [4]: 80
Wheat plant response rating [5]: 10
Barnyardgrass plant response rating [6]: 60
Pigweed plant response rating [7]: 100
Pigweed plant response rating [8]: 100
Foxtail, Giant plant response rating [9]: 100
Corn plant response rating [10]: 20
Barnyardgrass plant response rating [11]: 90
Velvetleaf plant response rating [12]: 100
Crabgrass, Large plant response rating [13]: 100
Foxtail, Giant plant response rating [14]: 70
Corn plant response rating [15]: 30
Crabgrass, Large plant response rating [16]: 80

CSc1cc(C(=O)NC2CC2)nn1Cc1cccc(C(F)(F)F)c1 [Compound 22]
Morningglory plant response rating [1]: 100
Morningglory plant response rating [2]: 0
Wheat plant response rating [3]: 20
Velvetleaf plant response rating [4]: 0
Wheat plant response rating [5]: 0
Barnyardgrass plant response rating [6]: 30
Pigweed plant response rating [7]: 60
Pigweed plant response rating [8]: 0
Foxtail, Giant plant response rating [9]: 20
Corn plant response rating [10]: 10
Barnyardgrass plant response rating [11]: 0
Velvetleaf plant response rating [12]: 80
Crabgrass, Large plant response rating [13]: 10
Foxtail, Giant plant response rating [14]: 40
Corn plant response rating [15]: 0
Crabgrass, Large plant response rating [16]: 50

CCNC(=O)c1cc(SC)n(Cc2cccc(C(F)(F)F)c2)n1 [Compound 23]
Morningglory plant response rating [1]: 100
Morningglory plant response rating [2]: 0
Wheat plant response rating [3]: 0
Velvetleaf plant response rating [4]: 0
Wheat plant response rating [5]: 0
Barnyardgrass plant response rating [6]: 10
Pigweed plant response rating [7]: 40
Pigweed plant response rating [8]: 0
Foxtail, Giant plant response rating [9]: 0
Corn plant response rating [10]: 20
Barnyardgrass plant response rating [11]: 0
Velvetleaf plant response rating [12]: 30
Crabgrass, Large plant response rating [13]: 0
Foxtail, Giant plant response rating [14]: 30
Corn plant response rating [15]: 0
Crabgrass, Large plant response rating [16]: 30

C=CCNC(=O)c1cc(CC)n(Cc2cccc(C(F)(F)F)c2)n1 [Compound 44]
Morningglory plant response rating [1]: 70
Morningglory plant response rating [2]: 20
Wheat plant response rating [3]: 20
Velvetleaf plant response rating [4]: 0
Wheat plant response rating [5]: 0
Barnyardgrass plant response rating [6]: 10
Pigweed plant response rating [7]: 50
Pigweed plant response rating [8]: 10
Foxtail, Giant plant response rating [9]: 50
Corn plant response rating [10]: 20
Barnyardgrass plant response rating [11]: 10
Velvetleaf plant response rating [12]: 40
Crabgrass, Large plant response rating [13]: 50
Foxtail, Giant plant response rating [14]: 50
Corn plant response rating [15]: 20
Crabgrass, Large plant response rating [16]: 20
